Values quoted from earlier work, collected in patent US20040241255A1, “Pharmaceutical composition containing valerina officinalis extract” (priority 2001, published 2004).

System: apnea during NREM sleep in rats
Conditions: injected intraperitoneally

CCNC(=O)C1OC(n2cnc3c(N)nc(NCCc4ccc(CCC(=O)O)cc4)nc32)C(O)C1O.Cl (stereo not drawn) [2-p-(2-carboxyethyl)-phenethyl-amino-5′-N-ethylcarboxamido-adenosine hydrochloride]
Suppression of apnea during NREM sleep: dose-dependent suppression of apnea

OC[C@H]1O[C@@H](n2cnc3c(N[C@H]4CCC[C@@H]4O)ncnc32)[C@H](O)[C@@H]1O (relative stereo) [N-[(1S,trans)-2-hydroxycyclopentyl]-adenosine]
Suppression of apnea during NREM sleep: dose-dependent suppression of apnea

C[C@H](Cc1ccccc1)Nc1ncnc2c1ncn2[C@@H]1O[C@H](CO)[C@@H](O)[C@H]1O [phenylisopropyl adenosine]
Suppression of apnea during NREM sleep: dose-dependent suppression of apnea
